Values joined by “and” are separate entries in the source; they are usually repeats but may differ in a detail not shown here. Identical values can stand only once. Toxic doses and inconclusive results are not listed. How the source made its calls: active means survival T/C of 150% or more; inactive means T/C below 125% in these data.
Tested on: CD2F1 mice, L1210 leukemia ip, survival T/C
Assay: NCI In Vivo Anticancer Drug Screen. Data for tumor model L1210 Leukemia (intraperitoneal) in CD2F1 (CDF1) mice
Details: higher = longer survival
In short: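 Tumor-bearing mice (transplanted tumor) were split into treated and vehicle control groups, and the measured endpoint of each treated group was divided by that of its vehicle controls.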

[1] = endpoint: mean survival time, dose: 12.5 mg/kg/injection, schedule: Q01DX001 (ip), vehicle: saline with Tween-80
[2] = endpoint: mean survival time, dose: 25.0 mg/kg/injection, schedule: Q01DX001 (ip), vehicle: saline with Tween-80
[3] = endpoint: mean survival time, dose: 100.0 mg/kg/injection, schedule: Q01DX001 (ip), vehicle: saline with Tween-80
[4] = endpoint: mean survival time, dose: 200.0 mg/kg/injection, schedule: Q01DX001 (ip), vehicle: saline with Tween-80
[5] = endpoint: mean survival time, dose: 400.0 mg/kg/injection, schedule: Q01DX001 (ip), vehicle: saline with Tween-80
[6] = endpoint: mean survival time, dose: 50.0 mg/kg/injection, schedule: Q01DX009 (ip), vehicle: saline with Tween-80
[7] = endpoint: mean survival time, dose: 100.0 mg/kg/injection, schedule: Q01DX009 (ip), vehicle: saline with Tween-80
[8] = endpoint: mean survival time, dose: 200.0 mg/kg/injection, schedule: Q01DX009 (ip), vehicle: saline with Tween-80
[9] = endpoint: mean survival time, dose: 12.5 mg/kg/injection, schedule: Q01DX009 (ip), vehicle: saline with Tween-80
[10] = endpoint: mean survival time, dose: 100.0 mg/kg/injection, schedule: Q04DX003 (ip), vehicle: saline with Tween-80
[11] = endpoint: mean survival time, dose: 400.0 mg/kg/injection, schedule: Q04DX003 (ip), vehicle: saline with Tween-80
[12] = endpoint: mean survival time, dose: 400.0 mg/kg/injection, schedule: Q01DX009 (ip), vehicle: saline with Tween-80

Measured: T/C

CC1=C(C)CC([P+](c2ccccc2)(c2ccccc2)c2ccccc2)CC1 (configuration not stated)
inactive: endpoint: mean survival time, dose: 6.25 mg/kg/injection, schedule: Q01DX001 (ip), vehicle: saline with Tween-80 98 % of control | [1] 90 % of control | [2] 94 % of control

O=[N+]([O-])c1ccc(C[n+]2ccccc2)cc1
inactive: endpoint: mean survival time, dose: 5.0 mg/kg/injection, schedule: Q01DX009 (ip), vehicle: saline 87 % of control | endpoint: mean survival time, dose: 5.0 mg/kg/injection, schedule: Q04DX003 (ip), vehicle: saline 104 % of control | endpoint: mean survival time, dose: 10.0 mg/kg/injection, schedule: Q01DX009 (ip), vehicle: saline 90 % of control | endpoint: mean survival time, dose: 10.0 mg/kg/injection, schedule: Q04DX003 (ip), vehicle: saline 108 % of control | endpoint: mean survival time, dose: 20.0 mg/kg/injection, schedule: Q01DX009 (ip), vehicle: saline 95 % of control | endpoint: mean survival time, dose: 20.0 mg/kg/injection, schedule: Q04DX003 (ip), vehicle: saline 100 % of control

O=C1C2CC=CC2C1(Cl)Cl (configuration not stated)
inactive: endpoint: mean survival time, dose: 75.0 mg/kg/injection, schedule: Q01DX001 (ip), vehicle: saline 91 % of control | endpoint: mean survival time, dose: 150.0 mg/kg/injection, schedule: Q01DX001 (ip), vehicle: saline 94 % of control | endpoint: mean survival time, dose: 300.0 mg/kg/injection, schedule: Q01DX001 (ip), vehicle: saline 91 % of control

O=[N+]([O-])c1ccc(/C=C2/c3ccccc3-c3nc4ccccc4cc32)cc1
inactive: [3] 93 % of control | [4] 87 % of control | [5] 93 % of control

CCCCOC(=O)CSSCC(=O)OCCCC
inactive: [6] 101 % of control | [7] 101 % of control | [8] 93 % of control

CC[N+](CC)(CC)CC
inactive: endpoint: mean survival time, dose: 0.37 mg/kg/injection, schedule: Q01DX009 (ip), vehicle: saline with Tween-80 110 % of control | endpoint: mean survival time, dose: 0.75 mg/kg/injection, schedule: Q01DX009 (ip), vehicle: saline with Tween-80 96 % of control | endpoint: mean survival time, dose: 1.5 mg/kg/injection, schedule: Q01DX009 (ip), vehicle: saline with Tween-80 96 % of control | endpoint: mean survival time, dose: 3.0 mg/kg/injection, schedule: Q01DX009 (ip), vehicle: saline with Tween-80 100 % of control | endpoint: mean survival time, dose: 6.0 mg/kg/injection, schedule: Q01DX009 (ip), vehicle: saline with Tween-80 110 % of control | endpoint: mean survival time, dose: 6.25 mg/kg/injection, schedule: Q04DX003 (ip), vehicle: saline with Tween-80 100 % of control | endpoint: mean survival time, dose: 12.0 mg/kg/injection, schedule: Q01DX009 (ip), vehicle: saline with Tween-80 96 % of control | [9] 88 % of control | endpoint: mean survival time, dose: 12.5 mg/kg/injection, schedule: Q04DX003 (ip), vehicle: saline with Tween-80 100 % of control

OCc1ccc(Cl)cc1
inactive: [10] 96 % of control | endpoint: mean survival time, dose: 200.0 mg/kg/injection, schedule: Q04DX003 (ip), vehicle: saline with Tween-80 97 % of control | [11] 100 % of control

CN(CCS(=O)(=O)O)/N=C/c1ccc2c(c1)OCO2
inactive: endpoint: mean survival time, dose: 25.0 mg/kg/injection, schedule: Q04DX003 (ip), vehicle: acetone 97 % of control | endpoint: mean survival time, dose: 50.0 mg/kg/injection, schedule: Q04DX003 (ip), vehicle: acetone 103 % of control | endpoint: mean survival time, dose: 100.0 mg/kg/injection, schedule: Q04DX003 (ip), vehicle: acetone 98 % of control

c1ccc(/C(=N\Nc2nc3ccccc3s2)c2ccncc2)cc1
inactive: endpoint: mean survival time, dose: 100.0 mg/kg/injection, schedule: Q04DX003 (ip), vehicle: Klucel (hydroxypropylcellulose) (HPC) 92 % of control | endpoint: mean survival time, dose: 200.0 mg/kg/injection, schedule: Q04DX003 (ip), vehicle: Klucel (hydroxypropylcellulose) (HPC) 89 % of control | endpoint: mean survival time, dose: 400.0 mg/kg/injection, schedule: Q04DX003 (ip), vehicle: Klucel (hydroxypropylcellulose) (HPC) 92 % of control

O=C1C(Cl)=C(NCc2ccccc2Cl)C(=O)c2ccccc21
inactive: [1] 108 % of control | [2] 108 % of control

Fc1c(F)c(F)c(Oc2c(F)c(F)c(Cl)c(F)c2F)c(F)c1F
inactive: [3] 91 % of control | [4] 91 % of control | [5] 88 % of control

CC(C)COC(=O)c1ccc(NC(=O)Nc2ccccc2Cl)cc1
inactive: [7] 93 % of control | [10] 93 % of control | [8] 89 % of control | [11] 101 % of control

Nc1nc(=O)[nH]c(N)c1N
inactive: endpoint: mean survival time, dose: 100.0 mg/kg/injection, schedule: Q04DX002 (ip), vehicle: saline 97 % of control | endpoint: mean survival time, dose: 200.0 mg/kg/injection, schedule: Q04DX002 (ip), vehicle: saline 117 % of control

CC(C)(O)C#Cc1ccccc1
inactive: [7] 98 % of control | [8] 98 % of control | [12] 96 % of control

O=C(O/N=C(\CN1CCCC1)c1ccc(Cl)cc1)c1ccccc1
inactive: endpoint: mean survival time, dose: 100.0 mg/kg/injection, schedule: Q01DX001 (ip), vehicle: Klucel (hydroxypropylcellulose) (HPC) 95 % of control | endpoint: mean survival time, dose: 200.0 mg/kg/injection, schedule: Q01DX001 (ip), vehicle: Klucel (hydroxypropylcellulose) (HPC) 95 % of control | endpoint: mean survival time, dose: 400.0 mg/kg/injection, schedule: Q01DX001 (ip), vehicle: Klucel (hydroxypropylcellulose) (HPC) 93 % of control

CN=S(=O)(OCCCCCOS(=O)(=NC)c1ccc(C)cc1)c1ccc(C)cc1 (configuration not stated)
inactive: endpoint: mean survival time, dose: 0.39 mg/kg/injection, schedule: Q01DX009 (ip), vehicle: saline with Tween-80 97 % of control | endpoint: mean survival time, dose: 0.78 mg/kg/injection, schedule: Q01DX009 (ip), vehicle: saline with Tween-80 103 % of control | endpoint: mean survival time, dose: 1.56 mg/kg/injection, schedule: Q01DX009 (ip), vehicle: saline with Tween-80 97 % of control | endpoint: mean survival time, dose: 3.12 mg/kg/injection, schedule: Q01DX009 (ip), vehicle: saline with Tween-80 105 % of control | endpoint: mean survival time, dose: 6.25 mg/kg/injection, schedule: Q01DX009 (ip), vehicle: saline with Tween-80 95 % of control and 100 % of control | [9] 97 % of control and 101 % of control | endpoint: mean survival time, dose: 25.0 mg/kg/injection, schedule: Q01DX009 (ip), vehicle: saline with Tween-80 103 % of control | [6] 97 % of control | [7] 101 % of control | [8] 100 % of control

NCCSC(C[N+](=O)[O-])c1ccccc1Cl (configuration not stated)
inactive: endpoint: median survival time, dose: 6.25 mg/kg/injection, schedule: Q01DX009 (ip), vehicle: saline 102 % of control | endpoint: median survival time, dose: 12.5 mg/kg/injection, schedule: Q01DX009 (ip), vehicle: saline 107 % of control | endpoint: median survival time, dose: 25.0 mg/kg/injection, schedule: Q01DX009 (ip), vehicle: saline 112 % of control | endpoint: median survival time, dose: 50.0 mg/kg/injection, schedule: Q01DX009 (ip), vehicle: saline 123 % of control | endpoint: median survival time, dose: 100.0 mg/kg/injection, schedule: Q01DX009 (ip), vehicle: saline 123 % of control

O=Cc1ccc[nH]1
inactive: endpoint: mean survival time, dose: 100.0 mg/kg/injection, schedule: Q01DX001 (ip), vehicle: saline 94 % of control | endpoint: mean survival time, dose: 100.0 mg/kg/injection, schedule: Q04DX003 (ip), vehicle: saline 104 % of control | endpoint: mean survival time, dose: 200.0 mg/kg/injection, schedule: Q01DX001 (ip), vehicle: saline 100 % of control | endpoint: mean survival time, dose: 200.0 mg/kg/injection, schedule: Q04DX003 (ip), vehicle: saline 101 % of control | endpoint: mean survival time, dose: 400.0 mg/kg/injection, schedule: Q01DX001 (ip), vehicle: saline 100 % of control | endpoint: mean survival time, dose: 400.0 mg/kg/injection, schedule: Q04DX003 (ip), vehicle: saline 108 % of control

NC(=O)C1=C(N)CCC1
inactive: [7] 104 % of control | [8] 104 % of control | [12] 106 % of control

CCOC(=O)c1cc(=O)cc(C(=O)OCC)o1
inactive: [3] 100 % of control | [4] 100 % of control | [5] 100 % of control

O=C1OC(c2ccc(Cl)cc2)=N/C1=C\c1ccccc1
inactive: endpoint: mean survival time, dose: 100.0 mg/kg/injection, schedule: Q01DX009 (ip), vehicle: acetone 97 % of control | endpoint: mean survival time, dose: 200.0 mg/kg/injection, schedule: Q01DX009 (ip), vehicle: acetone 101 % of control

— PubChem BioAssay AID256 (DTP/NCI, 2004)
